Data as given in patent US8501816B2, “Antitussive compositions comprising memantine” (Cerecor, Inc., priority 2010, dated 2013).

Assays:
[1] = Respiratory parameters during cough challenge; format: in vivo, guinea pig; details: 10 mg/kg memantine, p=0.012
Procedure: Using a similar chamber and nebulizer system, animals were treated first with aerosolized peptidase inhibitors (captopril 0.1 μM and thiorphan 0.1 μM, 5 minutes nebulization) to reduce bradykinin degradation and enhance tussive responses evoked by bradykinin (unpublished observations). Animals were then exposed to increasing concentrations of aerosolized bradykinin (0.1-3 mg/mL), again for 5 minute periods. Coughs are counted during this and the subsequent 5 minutes. Pressure changes within the chamber are used to monitor respiratory rate (Biopac Systems Inc, Goleta, Calif.).

[2] = Pharmacokinetics of memantine with sodium hydroxide, menthol and NH4Cl in male beagle dogs (Example 3); format: in vivo, beagle dog; details: MMT 0.4 mg/kg; for Cmax/Dose: Route Oral; for AUC(0-inf) / AUC(0-t) / Cmax / Tmax / half-life: male, beagle, dog, plasma, po, 0.4 mg/kg
[3] = system: porcine buccal mucosa; assay: Memantine ex vivo buccal permeability; format: in vitro ADME
[4] = system: freezing behavior during cued fear conditioning; assay: Cued fear conditioning in mice; format: in vivo
Procedure: The effects of memantine on enhancing cognition were investigated with fear conditioning tests on mice. Specifically, the fear conditioning test exposed mice to a conditioned stimulus (a tone) and an unconditioned stimulus (a mild electric shock). The mice learned to associate the tone with the shock as reflected by freezing. After being adequately conditioned, the mice were administered memantine or a control (vehicle alone). […] Fear Conditioning: Fear conditioning mouse chambers (7''W×7''D×12''H; Coulbourne Instruments, […] Valley, Pa.) were housed in sound attenuating chambers. A camera was mounted on the ceiling of the chamber to capture mouse behavior (FreezeFrame software, Coulbourne Instruments, […] Valley, Pa.); data were analyzed by Freezeview software (Coulbourne Instruments, […] Valley, Pa.). Fear conditioning chambers were calibrated prior to each experiment to ensure that each chamber delivers the same shock intensity. […] Pavlovian fear conditioning refers to the learning of associations between a negative reinforcer (e.g., a mild electric foot shock/s), a novel context (e.g. a context) and/or a specific, neutral, cue (e.g., tone or white noise). To assess contextual and cued (tone) learning and memory, a standardized fear conditioning task developed for the evaluation of memory in rodents was used. Protocol: […] Cue-induced Conditioning Testing: Mice were tested for cued memory 48 hours after training. The cued conditioning test was conducted in an altered context (i.e., a different test chamber). […] Statistical Analysis: Data are represented as the mean and standard error to the mean. Data were analyzed by analysis of variance (ANOVA) followed by Fisher PLSD, or unpaired t-tests, when appropriate to test a planned comparison. An effect was considered significant if p<0.05. Statistical outliers that fell above or below two standard deviations from the mean were removed from the final analysis.

[5] = treated for dementia, recent review; cited from earlier work
[6] = system: H3-receptor; details: hypothalamus, after 5 mg/kg twice daily for 5 days; cited from earlier work
[7] = system: native NMDA receptors; details: in vitro; cited from earlier work
[8] = system: recombinant human histamine receptors; details: in vitro; cited from earlier work
[9] = 3.3 mg/ml sodium hydroxide + 5 mg/ml menthol
[10] = 3.3 mg/ml sodium hydroxide + 5 mg/ml menthol + 20 mg/kg NH4Cl
[11] = 3.3 mg/ml sodium hydroxide + 5 mg/ml menthol + 30 mg/kg NH4Cl

## CC12CC3CC(C)(C1)CC(N)(C3)C2 [Memantine, 3,5-dimethyltricyclo[3.3.1.1^3,7]decan-1-amine]
[1]
  Change of breathing frequency induced by bradykinin: small increase in breathing frequency
[2]; [9]
  Cmax/Dose: 18.16
  AUC(0-inf): 126 ng·h/mL
  AUC(0-t): 113 ng·h/mL
  Cmax: 77 ng/mL
  Tmax: 12 min
  half-life: 303 min
[2]; [10]
  Cmax/Dose: 26.03
  AUC(0-inf): 143 ng·h/mL
  AUC(0-t): 134 ng·h/mL
  Cmax: 126 ng/mL
  Tmax: 9 min
  half-life: 276 min
[2]; [11]
  Cmax/Dose: 9.18
  AUC(0-inf): 125 ng·h/mL
  AUC(0-t): 103 ng·h/mL
  Cmax: 43 ng/mL
  Tmax: 15 min
  half-life: 260 min
[2]; Control
  Cmax/Dose: 7.91
  AUC(0-inf): 132 ng·h/mL
  AUC(0-t): 120 ng·h/mL
  Cmax: 34.5 ng/mL
  Tmax: 45 min
  half-life: 431 min
[3]; increase in pH from 5.5 to 9.0
  increase in permeability of memantine: over 100 fold
[3]; increase in pH from 8.0 to 9.0
  increase in permeability of memantine: about 3.8 fold
[4]; memantine 10 mg/kg IP + diphenhydramine 20 mg/kg
  cue-induced fear conditioning, CS phase, vs vehicle-diphenhydramine 20 mg/kg: significantly increased cue-induced fear conditioning
[4]; memantine 20 mg/kg plus diphenhydramine
  post-CS freezing vs vehicle-diphenhydramine: strong trend (p=0.052) toward a significant increase in post-CS freezing
[5]
  adverse effects reported, share of those treated: < 10%
[6]
  density of H3-receptor binding sites increased by: 141±24%
[7]
  potency of antagonism: micromolar potency
[8]
  effect at receptors: no effect
